Earlier results, collected in paper PMC2832019, “In Vitro Metabolic and Mitogenic Signaling of Insulin Glargine and Its Metabolites” (PLoS ONE, 2010).
Like-named read-outs stand apart in the source and are kept apart here.

Legend:
[1] = system: MCF-7 cells, HCT-116 (colorectal cancer) and PC-3 (prostate cancer) cells; details: ref [49]; cited from earlier work
Description: A correlation between IGF1R autophosphorylation and cell proliferation has been recently assumed by Shukla et al., who observed an enhanced growth of the malignant cell line MCF7 after insulin glargine stimulation. The authors have observed 10% and 50% increases of cellular proliferation at 0.31 and about 15 nmol/L. […] Unfortunately, no dose-response curve of IGF1R autophosphorylation as well as no proliferation data from siRNA knockdown of IR have ...

[2] = system: MCF10; details: benign cell line; ref [15]; cited from earlier work
Description: (§1) A correlation between IGF1R autophosphorylation and cell proliferation has been recently assumed by Shukla et al., who observed an enhanced growth of the malignant cell line MCF7 after insulin glargine stimulation. The authors have observed 10% and 50% increases of cellular proliferation at 0.31 and about 15 nmol/L. This effect seemed to be linked to activation of the IGF1R and the MAPK pathway, since siRNA knockdown of IGF1R decreased the response. Unfortunately, no dose-response curve of IGF1R autophosphorylation as well as no proliferation data from siRNA knockdown of IR have ...

[3] = system: MCF7; details: ref [15], cited from earlier work
Description: as §1

[4] = system: MCF-7 and SKBR-3 cells; details: ref [48]; cited from earlier work
Description: as §1

[5] = system: MCF7 and other tumor cell lines; details: ref [14]; cited from earlier work
Description: as §1

[6] = system: rats; details: 2-year life-time, relative to human insulin, ref [59]; cited from earlier work
Description: In these studies plasma insulin concentrations were 15 to 25 nmol/L, covering parent compound and active metabolites. In consequence, actual glargine concentrations may be overestimated, the extent of which depends on the degree of proteolytic degradation at both the injection site and the serum. Quantitative assessment of the insulin glargine metabolism in humans is evolving, and will bring further clarification.

[7] = no reference given, cited from earlier work
Description: These alterations cause a shift in the isoelectric point from pH 5.4 to 6.7. Following subcutaneous administration as a clear solution of pH 4, insulin gla ...

[8] = after injection, healthy subjects and patients with type 1 diabetes; ref [52]–[55]; cited from earlier work
Description: The therapeutic insulin glargine concentrations reported so far are 80- to 200-fold below the total plasma concentrations of IGF-1. […] Therefore, the concentration of free IGF-1 may be within the range of the plasma concentration of insulin glarg ...

[9] = in vivo, sc; cited from earlier work
[10] = system: BT474, T47D, ZR75-1, MDA-MB231, HCC1937; details: ref [15]; cited from earlier work
Description: as §1

[11] = system: Saos-2; parameters: method as in PMID 10866053; details: ref [12]; cited from earlier work
[12] = system: Sprague-Dawley rats; details: rat, in vivo; cited from earlier work

[Gly^A21,Arg^B31,Arg^B32]insulin [Glargine]
mitogenic potency [1]: increased mitogenic potency
difference between human insulin and insulin glargine [2]: did not show any difference
increase of cellular proliferation ([3]; at 0.31 nmol/L): 10%
increase of cellular proliferation ([3]; at about 15 nmol/L): 50%
mitogenic activity [4]: slightly increased mitogenic activity of insulin glargine without statistical significance
mitogenic activity relative to human insulin [5]: no evidence for an increased mitogenic activity
tumor-promoting activity [6]: without evidence of tumor-promoting activity greater than human insulin
isoelectric point [7]: 6.7 pH
solubility ([7]; physiological pH): low solubility at physiological pH
peak free serum insulin glargine level [8]: < 200 pmol/L

[Gly^A21,Arg^B31]insulin [Glargine IM]
amount of metabolite [9]: only in minor quantities

Human insulin: human insulin produced by recombinant DNA techniques or enzymatic semisynthesis
difference between human insulin and insulin glargine [2]: did not show any difference
response of cell lines to human insulin [10]: did not respond
isoelectric point [7]: 5.4 pH

[Asp^B10]insulin
proliferation rate of Saos-2 [11]: higher proliferation rate
incidence of breast cancer [12]: higher incidence of breast cancer
